This note sets out measurements from BindingDB's records for doi:10.1021/jm00398a002 (University of Kansas, 1988).

The assay concerns the target Adenosylhomocysteinase (Bos taurus). Kind of assay: Time course of inactivation of bovine liver S-adenosyl-homocysteine hydrolase.

Molecules are shown by their SMILES. pKi: −log10 of the molar value.

What is called pKi is the negative decadic logarithm of the Ki, by convention in mol/L.

On to `Nc1ncnc2c1ncn2[C@@H]1C=C[C@@H](O)[C@H]1O`, for which the negative-log Ki (pKi) was 7.39.

Compound `Nc1nccc2c1ncn2C1C=C[C@@H](O)[C@H]1O` (some centres not stated) had a pKi of 7.46. This pKi and that of the compound before are within 0.2 log units of each other.
